Laboratory results from patent publication US11535630B2, “Apelin receptor (APJ) agonists and uses thereof” (Research Triangle Institute, priority 2015, dated 2022).

These molecules were tested against T1, apelin receptor (APJ) (Homo sapiens, UniProt P35414) (assay: In vitro apelin agonist activity (methods of Giddings et al., Apelin-13 as positive control)). Conditions: in vitro apelin agonist activity, methods of Giddings et al., Apelin-13 as positive control; read-out: EC50 (nM) Ave.
T1 sequence (P35414 1-380): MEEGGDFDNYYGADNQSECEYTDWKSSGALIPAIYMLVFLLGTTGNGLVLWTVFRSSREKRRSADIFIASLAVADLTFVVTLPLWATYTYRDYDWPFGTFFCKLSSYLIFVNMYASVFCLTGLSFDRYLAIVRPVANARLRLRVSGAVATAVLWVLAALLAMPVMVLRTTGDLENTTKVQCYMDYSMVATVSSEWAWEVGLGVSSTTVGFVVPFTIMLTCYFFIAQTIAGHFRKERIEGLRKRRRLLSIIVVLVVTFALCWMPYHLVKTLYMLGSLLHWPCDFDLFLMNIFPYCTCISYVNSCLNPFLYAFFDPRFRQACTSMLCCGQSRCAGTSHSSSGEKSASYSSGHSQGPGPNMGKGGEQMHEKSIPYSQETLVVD
Format: cell-based
Description: Characterization of the Apelin Agonist Activity of the Compounds
1:39-47, the contents of which are hereby incorporated by reference in its entirety. Using the methods described in Giddings et al. and Apelin-13 as a positive control.

**Q.** For `O=C(C[C@H](CCN1CCCC1)NC(=O)c1cc(-c2ccccc2C(F)(F)F)n(C2CCCC2)n1)NC1CCC1` [compound 504, (3S)-N-cyclobutyl-3-({1-cyclopentyl-5-[2-(trifluoromethyl)phenyl]-1H-pyrazol-3-yl}formamido)-5-(pyrrolidin-1-yl)pentanamide], which EC50 is on record?
**A.** Its EC50 is 59 nM.

**Q.** `O=C(C[C@H](CCN1CCCC(F)(F)C1)NC(=O)c1cc(-c2ccccc2C(F)(F)F)n(C2CCCC2)n1)NC1CCC1` [compound 425, (3S)-N-cyclobutyl-3-({1-cyclopentyl-5-[2-(trifluoromethyl)phenyl]-1H-pyrazol-3-yl}formamido)-5-(3,3-difluoropiperidin-1-yl)pentanamide] was tested. Which EC50 did it give?
**A.** The EC50 was 10.9 nM.

**Q.** With `O=C(O)C[C@H](CCN1CC(F)(F)C1)NC(=O)c1cc(-c2ccccc2C(F)(F)F)n(C2CCCC2)n1` [compound 534, (3S)-3-({1-cyclopentyl-5-[2-(trifluoromethyl)phenyl]-1H-pyrazol-3-yl}formamido)-5-(3,3-difluoroazetidin-1-yl)pentanoic acid] as the molecule, how does the EC50 read?
**A.** The EC50 was 388 nM.

**Q.** How did the EC50 turn out when `COc1cccc(OC)c1-c1cc(C(=O)N[C@@H](/C=C/c2ccccn2)CC(=O)NC2CCC2)nn1C1CCCC1` [compound 435, (3R,4E)-N-cyclobutyl-3-{[1-cyclopentyl-5-(2,6-dimethoxyphenyl)-1H-pyrazol-3-yl]formamido}-5-(pyridin-2-yl)pent-4-enamide] was run?
**A.** Its EC50 is 9210 nM.

**Q.** `C[C@@H](c1nnn[nH]1)[C@H](CCN1CC2C(C1)C2(F)F)NC(=O)c1cc(-c2ccccc2C(F)(F)F)n(C2CCCC2)n1` (stereo partly drawn) [compound 638, 1-cyclopentyl-N-[(3S,4R)-1-{6,6-difluoro-3-azabicyclo[3.1.0]hexan-3-yl}-4-(1H-1,2,3,4-tetrazol-5-yl)pentan-3-yl]-5-[2-(trifluoromethyl)phenyl]-1H-pyrazole-3-carboxamide] was tested. Which EC50 did it give?
**A.** Its EC50 is 14 nM.

**Q.** With `COc1cccc(OC)c1-c1cc(C(=O)N[C@@H](CCC2CCN(C)CC2)CC(=O)NC2CCC2)nn1C1CCCC1` [compound 421, (3S)-N-cyclobutyl-3-{[1-cyclopentyl-5-(2,6-dimethoxyphenyl)-1H-pyrazol-3-yl]formamido}-5-(1-methylpiperidin-4-yl)pentanamide] as the molecule, how does the EC50 read?
**A.** Its EC50 is 3310 nM.

**Q.** Which EC50 does the source give for `CN(CC[C@@H](CC(=O)NC1CCC1)NC(=O)c1cc(-c2ccccc2C(F)(F)F)n(C2CCCC2)n1)C1CCCCC1` [compound 483] here?
**A.** The EC50 was 14 nM.

**Q.** `O=C(N[C@@H](CCN1CCCC(F)(F)C1)Cc1nnn[nH]1)c1cc(-c2ncccc2C(F)(F)F)n(C2CCCC2)n1` [compound 641] was tested. Which EC50 did it give?
**A.** The EC50 was 27 nM.

**Q.** With `O=C(C[C@H](CCN1CCCCC1)NC(=O)c1cc(-c2cncnc2)n(C2CCCC2)n1)NC1CCC1` [compound 368, (3S)-N-cyclobutyl-3-{[1-cyclopentyl-5-(pyrimidin-5-yl)-1H-pyrazol-3-yl]formamido}-5-(piperidin-1-yl)pentanamide] as the molecule, how does the EC50 read?
**A.** Its EC50 is greater than 10000 nM.

**Q.** For `O=C(O)C[C@H](CCN1CC2C(C1)C2(F)F)NC(=O)c1cc(-c2ccccc2C(F)(F)F)n(C2CCCC2)n1` (stereo partly drawn) [compound 603, (3S)-3-({1-cyclopentyl-5-[2-(trifluoromethyl)phenyl]-1H-pyrazol-3-yl}formamido)-5-{6,6-difluoro-3-azabicyclo[3.1.0]hexan-3-yl}pentanoic acid], which EC50 is on record?
**A.** Its EC50 is 46 nM.

**Q.** `COc1cccc(OC)c1-c1cc(C(=O)N[C@@H](CCN2CCCCC2)CC(N)=O)nn1C1CCCC1` [compound 352, (3S)-3-{[1-cyclopentyl-5-(2,6-dimethoxyphenyl)-1H-pyrazol-3-yl]formamido}-5-(piperidin-1-yl)pentanamide] was tested. Which EC50 did it give?
**A.** The EC50 was greater than 10000 nM.

**Q.** How did the EC50 turn out when `CCC(CC)n1nc(C(=O)N[C@@H](CCN2CCCCC2)CC(=O)NC2CCC2)cc1-c1c(OC)cccc1OC` [compound 357, (3S)-N-cyclobutyl-3-{[5-(2,6-dimethoxyphenyl)-1-(pentan-3-yl)-1H-pyrazol-3-yl]formamido}-5-(piperidin-1-yl)pentanamide] was run?
**A.** The EC50 was greater than 10000 nM.

**Q.** For `Cc1cc(C)n(CC[C@@H](CC(=O)N(C)c2nccs2)NC(=O)c2cc(-c3ccccc3C(F)(F)F)n(C3CCCC3)n2)n1` [compound 502, (3S)-3-({1-cyclopentyl-5-[2-(trifluoromethyl)phenyl]-1H-pyrazol-3-yl}formamido)-5-(3,5-dimethyl-1H-pyrazol-1-yl)-N-methyl-N-(1,3-thiazol-2-yl)pentanamide], which EC50 is on record?
**A.** The EC50 was 77 nM.

**Q.** With `O=C(C[C@H](CCN1CCC(F)(F)C1)NC(=O)c1cc(-c2ccccc2C(F)(F)F)n(C2CCCC2)n1)NC1CCC1` [compound 480, (3S)-N-cyclobutyl-3-({1-cyclopentyl-5-[2-(trifluoromethyl)phenyl]-1H-pyrazol-3-yl}formamido)-5-(3,3-difluoropyrrolidin-1-yl)pentanamide] as the molecule, how does the EC50 read?
**A.** The EC50 was 2.76 nM.

**Q.** Which EC50 does the source give for `O=C(C[C@H](COc1ccc(F)cc1)NC(=O)c1cc(-c2ccccc2C(F)(F)F)n(C2CCCC2)n1)NC1CCC1` [compound 546, (3R)-N-cyclobutyl-3-({1-cyclopentyl-5-[2-(trifluoromethyl)phenyl]-1H-pyrazol-3-yl}formamido)-4-(4-fluorophenoxy)butanamide] here?
**A.** The EC50 was 114 nM.

**Q.** Which EC50 does the source give for `CN1CC(NC(=O)C[C@H](CCc2ccc(F)cc2)NC(=O)c2cc(-c3ccccc3C(F)(F)F)n(C3CCCC3)n2)C1` [compound 482, (3S)-3-({1-cyclopentyl-5-[2-(trifluoromethyl)phenyl]-1H-pyrazol-3-yl}formamido)-5-(4-fluorophenyl)-N-(1-methylazetidin-3-yl)pentanamide] here?
**A.** The EC50 was 474 nM.

**Q.** Which EC50 does the source give for `COc1cccc(OC)c1-c1cc(C(=O)N[C@@H](CCc2cccnc2)CC(=O)NC2CCC2)nn1C1CCCC1` [compound 420, (3S)-N-cyclobutyl-3-{[1-cyclopentyl-5-(2,6-dimethoxyphenyl)-1H-pyrazol-3-yl]formamido}-5-(pyridin-3-yl)pentanamide] here?
**A.** Its EC50 is 883 nM.

**Q.** `CN(CC[C@@H](CC(=O)NC1CCC1)NC(=O)c1cc(-c2ccccc2C(F)(F)F)n(C2CCCC2)n1)C1(C)CCCC1` [compound 511, (3S)-N-cyclobutyl-3-({1-cyclopentyl-5-[2-(trifluoromethyl)phenyl]-1H-pyrazol-3-yl}formamido)-5-[methyl(1-methylcyclopentyl)amino]pentanamide] was tested. Which EC50 did it give?
**A.** The EC50 was 35 nM.

**Q.** For `O=C(O)C[C@H](CCN1CC2(CCC2(F)F)C1)NC(=O)c1cc(-c2ccccc2C(F)(F)F)n(C2CCCC2)n1` [compound 591, (3S)-3-({1-cyclopentyl-5-[2-(trifluoromethyl)phenyl]-1H-pyrazol-3-yl]formamido)-5-{5,5-difluoro-2-azaspiro[3.3]heptan-2-yl}pentanoic acid], which EC50 is on record?
**A.** The EC50 was 528 nM.

**Q.** `CSc1ccccc1-c1cc(C(=O)N[C@@H](CCN2CCCCC2)CC(=O)NC2CCC2)nn1C1CCCC1` [compound 360, (3S)-N-cyclobutyl-3-({1-cyclopentyl-5-[2-(methylsulfanyl)phenyl]-1H-pyrazol-3-yl]formamido)-5-(piperidin-1-yl)pentanamide] was tested. Which EC50 did it give?
**A.** The EC50 was 376 nM.

**Q.** For `O=C(O)C[C@H](CCN1CCC[C@@H](F)C1)NC(=O)c1cc(-c2ccccc2C(F)(F)F)n(C2CCCC2)n1` [compound 584, (3S)-3-({1-cyclopentyl-5-[2-(trifluoromethyl)phenyl]-1H-pyrazol-3-yl}formamido)-5-[(3R)-3-fluoropiperidin-1-yl]pentanoic acid], which EC50 is on record?
**A.** The EC50 was 184 nM.

**Q.** Which EC50 does the source give for `COCCN(C)C(=O)[C@H](CCc1ccccc1)NC(=O)c1nc(-c2ncccc2C(F)(F)F)n(C2CCCC2)n1` [compound 564] here?
**A.** Its EC50 is 982 nM.

**Q.** How did the EC50 turn out when `COc1cccc(OC)c1-c1cc(C(=O)N[C@@H](CCN2CCCCC2)CC(=O)Nc2ncco2)nn1C1CCCC1` [compound 339, (3S)-3-{[1-cyclopentyl-5-(2,6-dimethoxyphenyl)-1H-pyrazol-3-yl]formamido}-N-(1,3-oxazol-2-yl)-5-(piperidin-1-yl)pentanamide] was run?
**A.** Its EC50 is 31 nM.

**Q.** With `O=C(C[C@H](CCN1CCCCCC1)NC(=O)c1cc(-c2ccccc2C(F)(F)F)n(C2CCCC2)n1)NC1CCC1` [compound 505, (3S)-5-(azepan-1-yl)-N-cyclobutyl-3-({1-cyclopentyl-5-[2(trifluoromethyl)phenyl]-1H-pyrazol-3-yl}formamido)pentanamide] as the molecule, how does the EC50 read?
**A.** Its EC50 is 34 nM.

**Q.** `O=C(O)C[C@H](CCN1CCC[C@H](F)C1)NC(=O)c1cc(-c2ccccc2C(F)(F)F)n(C2CCCC2)n1` [compound 583, (3S)-3-({1-cyclopentyl-5-[2-(trifluoromethyl)phenyl]-1H-pyrazol-3-yl}formamido)-5-[(3S)-3-fluoropiperidin-1-yl]pentanoic acid] was tested. Which EC50 did it give?
**A.** Its EC50 is 302 nM.

**Q.** With `COc1cccc(OC)c1-c1cc(C(=O)N[C@@H](CCN2CCCCC2)CC(=O)N(C)c2nccs2)nn1C1CCCC1` [compound 351, (3S)-3-{[1-cyclopentyl-5-(2,6-dimethoxyphenyl)-1H-pyrazol-3-yl]formamido}-N-methyl-5-(piperidin-1-yl)-N-(1,3-thiazol-2-yl)pentanamide] as the molecule, how does the EC50 read?
**A.** Its EC50 is 73 nM.

**Q.** Which EC50 does the source give for `O=C(C[C@H](CCN1CC2CCC1CC2)NC(=O)c1cc(-c2ccccc2C(F)(F)F)n(C2CCCC2)n1)NC1CCC1` [compound 521] here?
**A.** Its EC50 is 100 nM.

**Q.** How did the EC50 turn out when `O=C(C[C@H](CC(=O)N1CCCC(F)(F)C1)NC(=O)c1cc(-c2ccccc2C(F)(F)F)n(C2CCCC2)n1)NC1CCC1` [compound 515, (3R)-N-cyclobutyl-3-({1-cyclopentyl-5-[2-(trifluoromethyl)phenyl]-1H-pyrazol-3-yl}formamido)-5-(3,3-difluoropiperidin-1-yl)-5-oxopentanamide] was run?
**A.** Its EC50 is 47 nM.

**Q.** For `O=C(O)C[C@H](CCN1CCCC(F)(F)C1)NC(=O)c1cc(-c2c(Cl)cccc2C(F)(F)F)n(C2CCCC2)n1` [compound 556, (3S)-3-({-[2-chloro-6-(trifluoromethyl)phenyl]-1-cyclopentyl-1H-pyrazol-3-yl}formamido)-5-(3,3-difluoropiperidin-1-yl)pentanoic acid], which EC50 is on record?
**A.** The EC50 was greater than 10 nM.
